The results in this text go back to patent US20120122870A1, “Treatment Of Ischemia-Reperfusion Injury” (MUSC FOUNDATION FOR RESEARCH DEVELOPMENT, priority 2009, published 2012).

One test deals with T1, recombinant human SK (Homo sapiens, UniProt Q9NYA1).
T1 construct: GST (glutathione-S-transferase) (N); made in house; host or cells: bacteria (pGEX bacterial expression vector)
T1 sequence (Q9NYA1 whole entry): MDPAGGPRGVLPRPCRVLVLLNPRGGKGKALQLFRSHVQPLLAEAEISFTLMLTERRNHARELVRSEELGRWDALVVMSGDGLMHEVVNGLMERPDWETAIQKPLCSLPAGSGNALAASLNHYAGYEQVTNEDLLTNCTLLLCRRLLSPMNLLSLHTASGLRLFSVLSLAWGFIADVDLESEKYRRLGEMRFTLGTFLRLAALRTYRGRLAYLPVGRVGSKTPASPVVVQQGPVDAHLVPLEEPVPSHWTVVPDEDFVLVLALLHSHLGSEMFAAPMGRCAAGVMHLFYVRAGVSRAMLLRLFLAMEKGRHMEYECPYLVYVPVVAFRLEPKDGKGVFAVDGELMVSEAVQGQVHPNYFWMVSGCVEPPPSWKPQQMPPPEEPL
Briefly: Recombinant human SK activity assay ([3H]sphingosine to [3H]S1P). It counts as biochemical. The settings on record: Human SK incubated with 6 μg/mL of compound; percentage of SK activity inhibited. How it is done:
SK activity is measured by incubation of the recombinant SK with [^3H]sphingosine and 1 mM ATP under defined conditions, followed by extraction of the assay mixture with chloroform:methanol under basic conditions. […] Radioactivity in aliquots of the aqueous phase is then quantified as a measure of [^3H]S1P formation.
(§1) Human SK was incubated with 6 μg/mL of the indicated compounds, and then assayed for activity as described above. Values in the column labeled “Recombinant SK (% inhibition)” represent the percentage of SK activity that was inhibited. MDA-MB-231 cells were incubated with 20 μg/mL of the indicated compounds and then assayed for endogenous SK activity as indicated above. Values in the column labeled “Cellular S1P (% inhibition)” represent the percentage of S1P production that was inhibited. Additionally, MDA-MB-231 cells were treated with varying concentration of certain compounds and the amount of S1P produced by the cells was determined. Values in the column labeled “Cellular S1P IC50 (μM)” represent the concentration of compound required to inhibit the production of S1P by 50%. ND=not determined.
With “4-(4-Chloro-phenyl)-thiazole-2-carboxylic acid 4-phenoxy benzylamide [B54]”, the “Recombinant SK (% inhibition)” value amounted to 25%.

`O=C(NC1CC1)C12CC3CC(C1)CC(c1ccc(Cl)cc1)(C3)C2` [A2, 3-(4-Chloro-phenyl)-adamantane-1-carboxylic acid cyclopropylamide]: the inhibition at 6 µg/mL amounted to 0%.

With `CCSCCNC(=O)C12CC3CC(C1)CC(c1ccc(Cl)cc1)(C3)C2` [A3, 3-(4-Chloro-phenyl)-adamantane-1-carboxylic acid (2-ethylsulfanyl-ethyl)-amide], the inhibition at 6 µg/mL is 6%.

As to `CSc1ccc(CNC(=O)C23CC4CC(C2)CC(c2ccc(Cl)cc2)(C4)C3)cc1` [A14, 3-(4-Chloro-phenyl)-adamantane-1-carboxylic acid 4-methylsulfanyl-benzylamide], the inhibition at 6 µg/mL worked out at 19%.

For the compound `O=C(NCc1ccc(C(F)(F)F)cc1)C12CC3CC(C1)CC(c1ccc(Cl)cc1)(C3)C2` [A16, 3-(4-Chloro-phenyl)-adamantane-1-carboxylic acid 4-trifluoromethyl-benzylamide], the inhibition at 6 µg/mL is 8%.

Regarding `O=C(NCc1cc(C(F)(F)F)cc(C(F)(F)F)c1)C12CC3CC(C1)CC(c1ccc(Cl)cc1)(C3)C2` [A17, 3-(4-Chloro-phenyl)-adamantane-1-carboxylic acid 3,5-bis-trifluoromethyl-benzylamide], the inhibition at 6 µg/mL worked out at 56%.

As for `O=C(NCc1cc(F)cc(C(F)(F)F)c1)C12CC3CC(C1)CC(c1ccc(Cl)cc1)(C3)C2` [A18, 3-(4-Chloro-phenyl)-adamantane-1-carboxylic acid 3-fluoro-5-trifluoromethyl-benzylamide], the inhibition at 6 µg/mL was 0%.

On to `O=C(NCc1cc(F)cc(F)c1)C12CC3CC(C1)CC(c1ccc(Cl)cc1)(C3)C2` [A20, 3-(4-Chloro-phenyl)-adamantane-1-carboxylic acid 3,5-difluoro-benzylamide], for which the inhibition at 6 µg/mL turned out to be 0%.

Take `O=C(NCc1ccc(F)c(F)c1)C12CC3CC(C1)CC(c1ccc(Cl)cc1)(C3)C2` [A21, 3-(4-Chloro-phenyl)-adamantane-1-carboxylic acid 3,4-difluoro-benzylamide]: the inhibition at 6 µg/mL was determined as 65%.

As for `O=C(NCc1cc(F)c(F)c(F)c1)C12CC3CC(C1)CC(c1ccc(Cl)cc1)(C3)C2` [A22, 3-(4-Chloro-phenyl)-adamantane-1-carboxylic acid 3,4,5-trifluoro-benzylamide], the inhibition at 6 µg/mL amounted to 56%.

A further test has as its system endogenous SK activity in MDA-MB-231 cells. The test is described as follows: Cellular S1P production (endogenous SK activity) in MDA-MB-231 cells. Particulars: Homo sapiens, MDA-MB-231, MDA-MB-231 cells incubated with 20 μg/mL of compound; percentage of S1P production inhibited. It counts as cell-based. How it is done:
as §1
`O=C(NCc1cccc(OC(F)(F)F)c1)c1nc(-c2ccc(Cl)cc2)cs1` [B43, 4-(4-Chloro-phenyl)-thiazole-2-carboxylic acid 3-trifluoromethoxy-benzylamide] came in with an inhibition at 20 µg/mL of 0%.

Turning to `O=C(NCCc1cccc(Oc2ccccc2)c1)c1nc(-c2ccc(Cl)cc2)cs1` [B44, 4-(4-Chloro-phenyl)-thiazole-2-carboxylic acid [2-(3-phenoxy-phenyl)-ethyl]-amide], 20 µg/mL produced 0% inhibition.

`CN1CCCC1CCNC(=O)c1nc(-c2ccc(Cl)cc2)cs1` (centres unmarked) [B45, 4-(4-Chloro-phenyl)-thiazole-2-carboxylic acid [2-(1-methyl-pyrrolidin-2-yl)-ethyl]-amide] showed an inhibition at 20 µg/mL of 0%.

Consider `CN1CCN(NC(=O)c2nc(-c3ccc(Cl)cc3)cs2)CC1` [B46, 4-(4-Chloro-phenyl)-thiazole-2-carboxylic acid (4-methyl-piperazin-1-yl)-amide], for which testing at 20 µg/mL gave an inhibition of 0%.

The compound `Clc1ccc(-c2csc(N(CCCc3ccccc3)CCCc3ccccc3)n2)cc1` [B71, [4-(4-Chloro-phenyl)-thiazol-2-yl]-bis-(3-phenyl-propyl)-amine] registered an inhibition at 20 µg/mL of 15%.

`Clc1ccc(-c2csc(N(Cc3ccccc3)Cc3ccccc3)n2)cc1` [B72, Dibenzyl-[4-(4-chloro-phenyl)-thiazol-2-yl]-amine] gave an inhibition at 20 µg/mL of 27%.

Consider `O=C(NCCN1CCOCC1)c1nc(-c2ccc(Cl)cc2)cs1` [B76, 4-(4-Chloro-phenyl)-thiazole-2-carboxylic acid (2-morpholin-4-yl-ethyl)-amide], for which at 20 µg/mL the inhibition was 81%.

`CN1CCCC1CCNC(=O)c1cccc(-c2ccc(Cl)cc2)c1` (centres unmarked) [B80, 4′-Chloro-biphenyl-3-carboxylic acid [2-(1-methyl-pyrrolidin-2-yl)-ethyl]-amide] yielded an inhibition at 20 µg/mL of 70%.

Regarding `O=C(NCc1ccncc1)c1cccc(-c2ccc(Cl)cc2)c1` [B81, 4′-Chloro-biphenyl-3-carboxylic acid (pyridin-4-ylmethyl)-amide], the inhibition at 20 µg/mL stood at 14%.

`CN1CCC(NC(=O)c2cccc(-c3ccc(Cl)cc3)c2)CC1` [B82, 4′-Chloro-biphenyl-3-carboxylic acid (1-methyl-piperidin-4-yl)-amide] showed an inhibition at 20 µg/mL of 67%.

`O=C(Nc1ccc(O)cc1)c1cccc(-c2ccc(Cl)cc2)c1` [B83, 4′-Chloro-biphenyl-3-carboxylic acid (4-hydroxy-phenyl)-amide] returned an inhibition at 20 µg/mL of 55%.

`O=C(NCCc1ccncc1)c1cccc(-c2ccc(Cl)cc2)c1` [B84, 4′-Chloro-biphenyl-3-carboxylic acid (2-pyridin-4-yl-ethyl)-amide] registered an inhibition at 20 µg/mL of 76%.

For `O=C(Nc1nc2cc(Cl)ccc2o1)c1ccccc1[N+](=O)[O-]` [B87, N-(5-Chloro-benzooxazol-2-yl)-2-nitro-benzamide], testing at 20 µg/mL gave an inhibition of 64%.

With `O=C(C=Cc1ccccc1)Nc1nc2cc(Cl)ccc2o1` [B88, N-(5-Chloro-benzooxazol-2-yl)-3-phenyl-acrylamide], the inhibition at 20 µg/mL is 46%.

Turning to `O=C(C=Cc1ccc([N+](=O)[O-])cc1)Nc1nc2cc(Cl)ccc2o1` [B89, N-(5-Chloro-benzooxazol-2-yl)-3-(4-nitro-phenyl)-acrylamide], the inhibition at 20 µg/mL turned out to be 74%.

Consider `C=CCCCCCCCCC(=O)Nc1nc2cc(Cl)ccc2o1` [B90, Undec-10-enoic acid (5-chloro-benzooxazol-2-yl)-amide], for which the inhibition at 20 µg/mL turned out to be 39%.

Regarding `CCCCCCCCCCCCCC(=O)Nc1nc2cc(Cl)ccc2o1` [B91, Tetradecanoic acid (5-chloro-benzooxazol-2-yl)-amide], the inhibition at 20 µg/mL came out at 0%.

Consider `CCCCCCCCCCCCCCCC(=O)Nc1nc2cc(Cl)ccc2o1` [B92, Hexadecanoic acid (5-chloro-benzooxazol-2-yl)-amide], for which 20 µg/mL produced 4% inhibition.

With `O=C(Nc1ccc(Cl)c(C(F)(F)F)c1)Nc1nc2cc(Cl)ccc2o1` [B93, 1-(5-Chloro-benzooxazol-2-yl)-3-(4-chloro-3-trifluoromethyl-phenyl)-urea], testing at 20 µg/mL gave an inhibition of 53%.

`O=C(Nc1ccc(Cl)c(C(F)(F)F)c1)Nc1nc2ccccc2s1` [B94, 1-Benzothiazol-2-yl-3-(4-chloro-3-trifluoromethyl-phenyl)-urea]: testing at 20 µg/mL gave an inhibition of 13%.

For the compound `O=C(Nc1nc2cc(Cl)ccc2s1)c1ccccc1O` [B96, N-(5-Chloro-benzothiazol-2-yl)-2-hydroxy-benzamide], the inhibition at 20 µg/mL was 18%.

`O=C(Nc1nc2cc(Cl)ccc2o1)c1cccc(F)c1` [B97, N-(5-Chloro-benzooxazol-2-yl)-3-fluoro-benzamide] showed an inhibition at 20 µg/mL of 38%.

Still in this test, the particulars now being: Homo sapiens; MDA-MB-231 cells, varying concentrations; concentration inhibiting S1P production by 50%.
The compound `O=C(NCCN1CCOCC1)c1nc(-c2ccc(Cl)cc2)cs1` [B76, 4-(4-Chloro-phenyl)-thiazole-2-carboxylic acid (2-morpholin-4-yl-ethyl)-amide] registered an IC50 of 5 µM.

`O=C(Nc1nc2cc(Cl)ccc2o1)c1ccccc1[N+](=O)[O-]` [B87, N-(5-Chloro-benzooxazol-2-yl)-2-nitro-benzamide] gave an IC50 of 22 µM.

`O=C(C=Cc1ccc([N+](=O)[O-])cc1)Nc1nc2cc(Cl)ccc2o1` [B89, N-(5-Chloro-benzooxazol-2-yl)-3-(4-nitro-phenyl)-acrylamide] yielded an IC50 of 5.8 µM.

The inhibition is the relative decrease from the control value, in per cent. One may read the IC50 as the concentration at which inhibition is half-maximal. A higher IC50 goes with weaker potency in that assay.
